Test results reported in patent US20090105217A1, “2-PHENYL-5-AMINO-1,3,4-OXADIAZOLES AND THEIR USE AS NICOTINIC ACETYLCHOLINE RECEPTOR LIGANDS” (priority 2007, published 2009).
Structures can show the parent of a compound that is named as a salt.

Target: T1, human α7 nAChR (Homo sapiens, UniProt P36544)
T1 construct: host or cells: GH4C1 cells (pituitary tumor, immortalized cell line)
Experiment: α7 nAChR FLIPR (Fluorometric Imaging Plate Reader) Ca2+ assay, agonist EC50
Format: cell-based
Conditions: GH4C1 cells stably transfected with human α7 nAChR; Fluo-4 Ca2+ fluorescence; Examples 194 to 205 tested as the HCl salt; read-out: pEC50 value (negative logarithm of the agonist EC50) (converted)
Method: α7 nAChR FLIPR® (Fluorometric Imaging Plate Reader) Assay
Function of the heterologous expressed α7 nAChR was assessed by a FLIPR-Ca^2+ assay. Since nAChRs are non-selective cation channels with high permeability to Ca^2+, these studies were carried out by measuring changes of intracellular Ca^2+ concentration using the Ca^2+-chelating fluorescent dye Fluo-4 and FLIPR® (Fluorometric Imaging Plate Reader) technology.
GH4C1cells (pituitary tumor, immortalized cell line) stably transfected with human α7 nAChR (Biocat ID 96986), were thawed, suspended in growth medium (Ham's Nutrient Mixture F10—Ham's F10, Invitrogen 31550-023, 15% Horse Serum heat inactivated—Invitrogen 26050-047, 2.5% Foetal Bovine Serum—FBS, Gibco 10500-064, 200 μg/ml Hygromycin B—Invitrogen, 10687-010, 10 mg/L Phenol Red—Sigma, P 0290, 1 mM Glutamine—Invitrogen, 25030-024) and plated in 500 cm^2 Triple Flask.
Cells were then incubated at 30° C., 5% CO2 for 72 hours.
On the day of the experiment, cells were washed twice with Assay Buffer (AB) (145 mM NaCl, 5 mM KCl, 1 mM MgCl2, 2 mM CaCl2, 20 mM HEPES, 5.5 mM Glucose pH=7.3) containing 2.5 mM Probenecid. Changes in the intracellular Ca^2+ content of stably transfected cells were measured using the Ca^2+ chelating dye Fluo-4 (Tef Labs 0152) in conjunction with a FLIPR® (Molecular Devices). The cell permeant dye Fluo-4 was prepared to a concentration of 1 mM in 100% DMSO and 10% Pluronic acid. The dye was then diluted with AB to a final concentration of 2 μM and placed on the cells. After 45-60 minutes dye loading incubation at 37° C., the unincorporated dye was removed from the cells by washing (80 μL, 3 times) with AB, and a final volume of 30 μL/well of AB was left in each well.
Plates containing test compounds (dissolved in 100% DMSO at 2 mM and serially diluted with DMSO) were copied into “daughter” plates (1 μL/well dispensation). Just prior to starting the assay, the “daughter” plate was diluted with 50 μL/well of AB.
The plates were then placed in the FLIPR®, and cell fluorescence was determined before drug addition (30 seconds) and monitored (excitation 488 nm, emission 510-580 nm) immediately following exposure to compounds. Maximum fluorescence values were recorded and fitted for agonist EC50 calculations.
The results are expressed as pEC50 values. A pEC50 is the negative logarithm of the agonist EC50 calculation as determined in the α7 nAChR FLIPR® assay. […] Variations in pEC50 may arise between tests.

T1 sequence (P36544 23-502): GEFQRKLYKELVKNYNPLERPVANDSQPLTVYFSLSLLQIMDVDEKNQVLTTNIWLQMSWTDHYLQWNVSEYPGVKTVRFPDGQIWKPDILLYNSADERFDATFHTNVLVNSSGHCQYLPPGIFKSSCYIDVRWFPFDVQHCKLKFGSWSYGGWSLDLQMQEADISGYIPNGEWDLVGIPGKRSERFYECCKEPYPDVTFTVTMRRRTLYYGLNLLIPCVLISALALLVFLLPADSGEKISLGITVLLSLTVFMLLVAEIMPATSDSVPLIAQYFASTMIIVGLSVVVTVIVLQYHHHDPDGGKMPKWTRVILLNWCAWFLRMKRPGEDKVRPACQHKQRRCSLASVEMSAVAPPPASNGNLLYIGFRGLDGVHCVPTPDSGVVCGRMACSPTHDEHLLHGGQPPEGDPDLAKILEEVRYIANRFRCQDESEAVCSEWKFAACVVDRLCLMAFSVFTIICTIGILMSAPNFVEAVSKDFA

SMILES | EC50 [µM]
O=C(Nc1ccc(-c2nnc(NCCCN3CCCC3)o2)c(F)c1)c1ccccc1 [Example 107, N-[3-fluoro-4-(5-{[3-(1-pyrrolidinyl)propyl]-amino}-1,3,4-oxadiazol-2-yl)phenyl]benzamide] | ≤ 1
COc1cc(NC(=O)c2ccccc2)ccc1-c1nnc(NCCCN2CCOCC2)o1 [Example 72, N-[3-(methyloxy)-4-(5-{[3-(4-morpholinyl)propyl]amino}-1,3,4-oxadiazol-2-yl)phenyl]benzamide] | ≤ 1
COc1cc(NC(=O)c2ccccc2F)ccc1-c1nnc(NCCCCN2CCC(F)CC2)o1 [Example 145, 2-fluoro-N-[4-(5-{[4-(4-fluoro-1-piperidinyl)butyl]amino}-1,3,4-oxadiazol-2-yl)-3-(methyloxy)phenyl]benzamide] | ≤ 0.1
CCN(CC)CCCNc1nnc(-c2ccc(NC(=O)c3ccccc3)cc2Cl)o1 [Example 103, N-[3-chloro-4-(5-{[3-(diethylamino)propyl]amino}-1,3,4-oxadiazol-2-yl)phenyl]benzamide] | ≤ 1
CCOc1cc(NC(=O)C2CCCCC2)ccc1-c1nnc(NCCCN2CCCCC2)o1 [Example 189, N-[3-(ethyloxy)-4-(5-{[3-(1-piperidinyl)propyl]amino}-1,3,4-oxadiazol-2-yl)phenyl]cyclohexane-carboxamide] | ≤ 1
CCN(CC)CCCNc1nnc(-c2ccc(NC(=O)CC(C)C)cc2OC)o1 [Example 230, N-[4-(5-{[3-(diethylamino)propyl]amino}-1,3,4-oxadiazol-2-yl)-3-(methyloxy)phenyl]-3-methylbutanamidetrifluoroacetate] | ≤ 1
O=C(Nc1ccc(-c2nnc(NCCCCN3CCCC3)o2)c(Cl)c1)C1CCCCC1 [Example 158, N-[3-chloro-4-(5-{[4-(1-pyrrolidinyl)butyl]amino}-1,3,4-oxadiazol-2-yl)phenyl]cyclohexanecarboxamide] | ≤ 0.1
CC1(C)CCN(CCCNc2nnc(-c3ccc(NC(=O)c4ccccc4F)cc3)o2)CC1 [Example 135, N-[4-(5-{[3-(4,4-dimethyl-1-piperidinyl)propyl]amino}-1,3,4-oxadiazol-2-yl)phenyl]-2-fluorobenzamide] | ≤ 1
COc1cc(NC(=O)C2CCCCC2)ccc1-c1nnc(NCCCN2CCCCC2)o1 [Example 28, N-[3-(methyloxy)-4-(5-{[3-(1-piperidinyl)propyl]amino}-1,3,4-oxadiazol-2-yl)phenyl]cyclohexanecarboxamide] | ≤ 1
CCN(CC)CCCNc1nnc(-c2ccc(NC(=O)c3ccc(F)cc3)cc2OC)o1 [Example 202, N-[4-(5-{[3-(Diethylamino)propyl]amino}-1,3,4-oxadiazol-2-yl)-3-(methyloxy)phenyl]-4-fluorobenzamide] | ≤ 1
O=C(Nc1ccc(-c2nnc(NCCCN3CCCC3)o2)c(C(F)(F)F)c1)c1ccccc1 [Example 91, N-[4-(5-{[3-(1-pyrrolidinyl)propyl]amino}-1,3,4-oxadiazol-2-yl)-3-(trifluoromethyl)phenyl]benzamide] | ≤ 1
CCN(CC)CCCNc1nnc(-c2ccc(NC(=O)c3cccc(F)c3)cc2)o1 [Example 209, N-[4-(5-{[3-(diethylamino)propyl]amino}-1,3,4-oxadiazol-2-yl)phenyl]-3-fluorobenzamidetrifluoroacetate] | ≤ 1
O=C(Nc1ccc(-c2nnc(NCCCCN3CCCCC3)o2)c(C(F)(F)F)c1)c1ccccc1F [Example 90, 2-fluoro-N-[4-(5-{[4-(1-piperidinyl)butyl]amino]-1,3,4-oxadiazol-2-yl)-3-(trifluoromethyl)phenyl]benzamide] | ≤ 0.1
O=C(Nc1ccc(-c2nnc(NCCCN3CCCCC3)o2)cc1)c1cccnc1 [Example 13, N-[4-(5-{[3-(1-Piperidinyl)propyl]amino}-1,3,4-oxadiazol-2-yl)phenyl]-3-pyridinecarboxamidehydrochloride] | ≤ 1
O=C(Nc1ccc(-c2nnc(NCCCN3CCCC3)o2)c(Cl)c1)c1ccccc1F [Example 165, N-[3-chloro-4-(5-{[3-(1-pyrrolidinyl)propyl]amino}-1,3,4-oxadiazol-2-yl)phenyl]-2-fluorobenzamide] | ≤ 1
CCN(CC)CCCNc1nnc(-c2ccc(NC(=O)c3ccccc3)cc2F)o1 [Example 111, N-[4-(5-{[3-(diethylamino)propyl]amino}-1,3,4-oxadiazol-2-yl)-3-fluorophenyl]benzamide] | ≤ 1
COc1cc(NC(=O)c2c(F)cccc2F)ccc1-c1nnc(NCCCN2CCOCC2)o1 [Example 226, 2,6-difluoro-N-[3-(methyloxy)-4-(5-{[3-(4-morpholinyl)propyl]amino}-1,3,4-oxadiazol-2-yl)phenyl]benzamidetrifluoroacetate] | ≤ 1
CCN(CC)CCCCNc1nnc(-c2ccc(NC(=O)C3CCCCC3)cc2F)o1 [Example 60, N-[4-(5-{[4-(diethylamino)butyl]amino}-1,3,4-oxadiazol-2-yl)-3-fluorophenyl]cyclohexanecarboxamide] | ≤ 1
O=C(Nc1ccc(-c2nnc(NCCCN3CCCC3)o2)c(F)c1)c1ccccc1F [Example 47, 2-fluoro-N-[3-fluoro-4-(5-{[3-(1-pyrrolidinyl)propyl]amino}-1,3,4-oxadiazol-2-yl)phenyl]benzamide] | ≤ 1
O=C(Nc1ccc(-c2nnc(NCCCCN3CCCCC3)o2)c(C(F)(F)F)c1)C1CCCCC1 [Example 62, N-[4-(5-{[4-(1-piperidinyl)butyl]amino}-1,3,4-oxadiazol-2-yl)-3-(trifluoromethyl)phenyl]cyclohexanecarboxamide] | ≤ 0.1
CCN(CC)CCCNc1nnc(-c2ccc(NC(=O)c3ccccc3F)cc2C(F)(F)F)o1 [Example 88, N-[4-(5-{[3-(diethylamino)propyl]amino}-1,3,4-oxadiazol-2-yl)-3-(trifluoromethyl)phenyl]-2-fluorobenzamide] | ≤ 1
CCc1cc(NC(=O)c2ccccc2F)ccc1-c1nnc(NCCCCN2CCCC2)o1 [Example 170, N-[3-ethyl-4-(5-{[4-(1-pyrrolidinyl)butyl]amino}-1,3,4-oxadiazol-2-yl)phenyl]-2-fluorobenzamide] | ≤ 0.1
CCN(CC)CCCCNc1nnc(-c2ccc(NC(=O)C3CCCCC3)cc2C(F)(F)F)o1 [Example 68, N-[4-(5-{[4-(diethylamino)butyl]amino}-1,3,4-oxadiazol-2-yl)-3-(trifluoromethyl)phenyl]cyclohexanecarboxamide] | ≤ 1
O=C(Nc1ccc(-c2nnc(NCCCN3CCCCC3)o2)cc1)c1cccs1 [Example 8, N-[4-(5-{[3-(1-Piperidinyl)propyl]amino}-1,3,4-oxadiazol-2-yl)phenyl]-2-thiophenecarboxamidehydrochloride] | ≤ 1
COc1cc(NC(=O)c2ccccc2)ccc1-c1nnc(NCCCN2CCCCC2)o1 [Example 71, N-[3-(methyloxy)-4-(5-{[3-(1-piperidinyl)propyl]amino}-1,3,4-oxadiazol-2-yl)phenyl]benzamide] | ≤ 0.1
O=C(Nc1ccc(-c2nnc(NCCCN3CCCCC3)o2)cc1)c1ccsc1 [Example 10, N-[4-(5-{[3-(1-Piperidinyl)propyl]amino}-1,3,4-oxadiazol-2-yl)phenyl]-3-thiophenecarboxamidehydrochloride] | ≤ 1
